{"source": "patent US8952024B2", "about": "“Herbicidal pyrimidone derivatives” (E I du Pont de Nemours and Company, priority 2009, dated 2015)", "format_in_all_cases": "in vivo", "key": {"[1]": {"system": "umbrella sedge (Cyperus difformis)", "assay": "Test B flooded paddy test", "how_it_was_run": "(§1)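 Rice, umbrella sedge, ducksalad and barnyardgrass were grown to the 2-leaf stage, flooded to 3 cm, and compound was applied directly to the paddy water, with that depth kept throughout. After 13 to 15 days in the greenhouse, plants were visually rated against controls on a 0 (no effect) to 100 (complete control) scale.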"}, "[2]": {"system": "barnyardgrass (Echinochloa crus-galli)", "assay": "Test B flooded paddy test", "how_it_was_run": "as §1"}, "[3]": {"system": "goosegrass (Eleusine indica)", "assay": "Test B pre-/postemergence plant response", "how_it_was_run": "(§2)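 Plants treated either at seeding (loam/sand soil) or postemergence at 2 to 18 cm height, using a surfactant-containing non-phytotoxic solvent formulation. Evaluation was visual after 13 to 15 days, 0 to 100 scale relative to controls.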"}, "[4]": {"system": "bermudagrass (Cynodon dactylon)", "assay": "Test B pre-/postemergence plant response", "how_it_was_run": "as §2"}, "[5]": {"system": "large crabgrass (Digitaria sanguinalis)", "assay": "Test B pre-/postemergence plant response", "how_it_was_run": "as §2"}, "wild oat (Avena fatua)": {"system": "wild oat (Avena fatua)", "assay": "Test B pre-/postemergence plant response", "how_it_was_run": "as §2"}, "[6]": {"system": "lambsquarters (Chenopodium album)", "assay": "Test B pre-/postemergence plant response", "how_it_was_run": "as §2"}, "[7]": {"system": "wheat (Triticum aestivum)", "assay": "Test B pre-/postemergence plant response", "how_it_was_run": "as §2"}, "[8]": {"system": "morningglory (Ipomoea coccinea)", "assay": "Test B pre-/postemergence plant response", "how_it_was_run": "as §2"}, "[9]": {"system": "green foxtail (Setaria viridis)", "assay": "Test B pre-/postemergence plant response", "how_it_was_run": "as §2"}, "[10]": {"system": "yellow nutsedge (Cyperus esculentus)", "assay": "Test B pre-/postemergence plant response", "how_it_was_run": "as §2"}, "[11]": {"system": "cocklebur (Xanthium strumarium)", "assay": "Test B pre-/postemergence plant response", "how_it_was_run": "as §2"}, "[12]": {"conditions": "250 g ai/ha, flooded paddy test, visual rating on 0 to 100 scale (0 no effect, 100 complete control) after 13 to 15 days"}, "[13]": {"conditions": "Flood (flooded paddy test), 62 g ai/ha, scale 0 to 100, 0 is no effect, 100 is complete control, 13 to 15 days"}, "[14]": {"conditions": "250 g ai/ha, Preemergence, 0 to 100 scale"}, "[15]": {"conditions": "Postemergence, 31 g ai/ha, scale 0 to 100 (0 no effect, 100 complete control)"}, "[16]": {"conditions": "Postemergence, 62 g ai/ha, scale 0 (no effect) to 100 (complete control), 13 to 15 days"}, "[17]": {"conditions": "Postemergence, 125 g ai/ha, visual rating after 13 to 15 days, scale 0 (no effect) to 100 (complete control)"}, "[18]": {"conditions": "Postemergence, 250 g ai/ha, scale 0 to 100"}, "[19]": {"conditions": "Preemergence, 31 g ai/ha, scale 0 to 100 (0 no effect, 100 complete control)"}, "[20]": {"conditions": "Preemergence, 125 g ai/ha, 0 to 100 scale"}, "[21]": {"conditions": "Preemergence, 62 g ai/ha, scale 0 to 100 (0 no effect, 100 complete control)"}}}
{"smiles": "O=C1CCCC(O)=C1C(=O)c1cnc(-c2ccccc2)n(-c2ccccc2F)c1=O", "note": "[Compound 26]", "values": [{"measurement": "Plant response rating, Flood, Sedge, Umbrella", "setting": "[1]; [12]", "value": 85}, {"measurement": "Plant response rating, Sedge, Umbrella", "setting": "[1]; [13]", "value": 75}, {"measurement": "Plant response rating, Flood, Barnyardgrass", "setting": "[2]; [12]", "value": 0}, {"measurement": "Plant response rating, Barnyardgrass", "setting": "[2]; [13]", "value": 0}, {"measurement": "Plant response rating, Goosegrass", "setting": "[3]; [14]", "value": 100}, {"measurement": "Plant response rating, Goosegrass", "setting": "[3]; [15]", "value": 60}, {"measurement": "Plant response rating, Goosegrass", "setting": "[3]; [16]", "value": 90}, {"measurement": "Plant response rating, Goosegrass", "setting": "[3]; [17]", "value": 95}, {"measurement": "Goosegrass plant response rating", "setting": "[3]; [18]", "value": 95}, {"measurement": "Plant response rating, Goosegrass", "setting": "[3]; [19]", "value": 5}, {"measurement": "Goosegrass plant response rating", "setting": "[3]; [20]", "value": 95}, {"measurement": "Plant response rating, Bermudagrass", "setting": "[4]; [14]", "value": 100}, {"measurement": "Plant response rating, Bermudagrass", "setting": "[4]; [15]", "value": 40}, {"measurement": "Plant response rating, Bermudagrass", "setting": "[4]; [16]", "value": 50}, {"measurement": "Plant response rating, Bermudagrass", "setting": "[4]; Postemergence, 125 g ai/ha, scale 0 to 100 (0 no effect, 100 complete control), 13 to 15 days", "value": 60}, {"measurement": "Bermudagrass plant response rating", "setting": "[4]; [18]", "value": 75}, {"measurement": "Plant response rating, Bermudagrass", "setting": "[4]; [19]", "value": 5}, {"measurement": "Plant response rating, Bermudagrass", "setting": "[4]; [21]", "value": 70}, {"measurement": "Bermudagrass plant response rating", "setting": "[4]; [20]", "value": 98}, {"measurement": "Plant response rating, Crabgrass, Large", "setting": "[5]; [14]", "value": 100}, {"measurement": "Plant response rating, Crabgrass, Large", "setting": "[5]; [15]", "value": 40}, {"measurement": "Plant response rating, Crabgrass, Large", "setting": "[5]; [16]", "value": 50}, {"measurement": "Plant response rating, Crabgrass, Large", "setting": "[5]; [17]", "value": 50}, {"measurement": "Crabgrass, Large plant response rating", "setting": "[5]; [18]", "value": 80}, {"measurement": "Plant response rating, Crabgrass, Large", "setting": "[5]; [19]", "value": 0}, {"measurement": "Plant response rating, Crabgrass, Large", "setting": "[5]; [21]", "value": 40}, {"measurement": "Crabgrass, Large plant response rating", "setting": "[5]; [20]", "value": 100}, {"measurement": "Plant response rating, Oat, Wild", "setting": "wild oat (Avena fatua); [14]", "value": 5}, {"measurement": "Plant response rating, Oat, Wild", "setting": "wild oat (Avena fatua); [15]", "value": 40}, {"measurement": "Plant response rating, Oat, Wild", "setting": "wild oat (Avena fatua); [16]", "value": 40}, {"measurement": "Plant response rating, Oat, Wild", "setting": "wild oat (Avena fatua); [17]", "value": 45}, {"measurement": "Oat, Wild plant response rating", "setting": "wild oat (Avena fatua); [18]", "value": 60}, {"measurement": "Plant response rating, Oat, Wild", "setting": "wild oat (Avena fatua); [19]", "value": 0}, {"measurement": "Plant response rating, Oat, Wild", "setting": "wild oat (Avena fatua); [21]", "value": 0}, {"measurement": "Oat, Wild plant response rating", "setting": "wild oat (Avena fatua); [20]", "value": 0}, {"measurement": "Plant response rating, Lambsquarters", "setting": "[6]; [14]", "value": 100}, {"measurement": "Plant response rating, Lambsquarters", "setting": "[6]; [15]", "value": 80}, {"measurement": "Plant response rating, Lambsquarters", "setting": "[6]; [16]", "value": 90}, {"measurement": "Plant response rating, Lambsquarters", "setting": "[6]; [17]", "value": 90}, {"measurement": "Lambsquarters plant response rating", "setting": "[6]; [18]", "value": 98}, {"measurement": "Plant response rating, Lambsquarters", "setting": "[6]; [19]", "value": 98}, {"measurement": "Plant response rating, Lambsquarters", "setting": "[6]; [21]", "value": 100}, {"measurement": "Lambsquarters plant response rating", "setting": "[6]; [20]", "value": 100}, {"measurement": "Plant response rating, Wheat", "setting": "[7]; [14]", "value": 0}, {"measurement": "Plant response rating, Wheat", "setting": "[7]; [15]", "value": 0}, {"measurement": "Plant response rating, Wheat", "setting": "[7]; [16]", "value": 0}, {"measurement": "Plant response rating, Wheat", "setting": "[7]; [17]", "value": 5}, {"measurement": "Wheat plant response rating", "setting": "[7]; [18]", "value": 30}, {"measurement": "Plant response rating, Wheat", "setting": "[7]; [19]", "value": 0}, {"measurement": "Plant response rating, Wheat", "setting": "[7]; [21]", "value": 0}, {"measurement": "Wheat plant response rating", "setting": "[7]; [20]", "value": 0}, {"measurement": "Plant response rating, Morningglory", "setting": "[8]; [14]", "value": 100}, {"measurement": "Plant response rating, Morningglory", "setting": "[8]; [15]", "value": 50}, {"measurement": "Plant response rating, Morningglory", "setting": "[8]; [16]", "value": 50}, {"measurement": "Plant response rating, Morningglory", "setting": "[8]; [17]", "value": 75}, {"measurement": "Morningglory plant response rating", "setting": "[8]; [18]", "value": 75}, {"measurement": "Plant response rating, Morningglory", "setting": "[8]; [19]", "value": 100}, {"measurement": "Plant response rating, Morningglory", "setting": "[8]; [21]", "value": 100}, {"measurement": "Morningglory plant response rating", "setting": "[8]; [20]", "value": 100}, {"measurement": "Plant response rating, Foxtail, Green", "setting": "[9]; [14]", "value": 70}, {"measurement": "Plant response rating, Foxtail, Green", "setting": "[9]; [15]", "value": 35}, {"measurement": "Plant response rating, Foxtail, Green", "setting": "[9]; [16]", "value": 40}, {"measurement": "Plant response rating, Foxtail, Green", "setting": "[9]; [17]", "value": 85}, {"measurement": "Foxtail, Green plant response rating", "setting": "[9]; [18]", "value": 95}, {"measurement": "Plant response rating, Foxtail, Green", "setting": "[9]; [19]", "value": 0}, {"measurement": "Plant response rating, Foxtail, Green", "setting": "[9]; [21]", "value": 0}, {"measurement": "Foxtail, Green plant response rating", "setting": "[9]; [20]", "value": 30}, {"measurement": "Plant response rating, Nutsedge, Yellow", "setting": "[10]; [14]", "value": 85}, {"measurement": "Plant response rating, Nutsedge, Yellow", "setting": "[10]; [15]", "value": 30}, {"measurement": "Plant response rating, Nutsedge, Yellow", "setting": "[10]; [16]", "value": 30}, {"measurement": "Plant response rating, Nutsedge, Yellow", "setting": "[10]; [17]", "value": 35}, {"measurement": "Nutsedge, Yellow plant response rating", "setting": "[10]; [18]", "value": 35}, {"measurement": "Plant response rating, Nutsedge, Yellow", "setting": "[10]; [19]", "value": 10}, {"measurement": "Plant response rating, Nutsedge, Yellow", "setting": "[10]; [21]", "value": 50}, {"measurement": "Nutsedge, Yellow plant response rating", "setting": "[10]; [20]", "value": 50}, {"measurement": "Plant response rating, Cocklebur", "setting": "[11]; [14]", "value": 98}, {"measurement": "Plant response rating, Cocklebur", "setting": "[11]; [15]", "value": 80}, {"measurement": "Plant response rating, Cocklebur", "setting": "[11]; [16]", "value": 80}, {"measurement": "Plant response rating, Cocklebur", "setting": "[11]; [17]", "value": 95}, {"measurement": "Cocklebur plant response rating", "setting": "[11]; [18]", "value": 100}, {"measurement": "Plant response rating, Cocklebur", "setting": "[11]; [19]", "value": 10}, {"measurement": "Plant response rating, Cocklebur", "setting": "[11]; [21]", "value": 40}, {"measurement": "Cocklebur plant response rating", "setting": "[11]; [20]", "value": 85}]}
